The values below come from article PMC8359396, “Pharmacological validation of TDO as a target for Parkinson’s disease” (The Febs Journal, 2021).

The target of test [1] is T1, recombinant human TDO (hTDO) (Homo sapiens, UniProt P48775).
The target in test [2] is CYP3A4 (Homo sapiens, UniProt P08684). Nature of the test: CYP enzyme panel. Type of test: biochemical. The text has this:
(§1) Since TDO contains a heme center, similar to cytochrome P450 (CYP) enzymes, we evaluated the selectivity of NTRC 3531‐0 on a panel of seven CYP enzymes, that is, CYP1A2, CYP2B6, CYP2C8, CYP2C9, CYP2C19, CYP2D6, and CYP3A4.

Test [3] has as its target CYP2B6 (Homo sapiens, UniProt P20813). Put plainly: CYP enzyme panel. In kind it is biochemical.
Excerpt: as §1

In test [4] the target is CYP1A2 (Homo sapiens, UniProt P05177). Put plainly: CYP enzyme panel. Type of test: biochemical.
Chain of CYP1A2 (P05177 whole entry): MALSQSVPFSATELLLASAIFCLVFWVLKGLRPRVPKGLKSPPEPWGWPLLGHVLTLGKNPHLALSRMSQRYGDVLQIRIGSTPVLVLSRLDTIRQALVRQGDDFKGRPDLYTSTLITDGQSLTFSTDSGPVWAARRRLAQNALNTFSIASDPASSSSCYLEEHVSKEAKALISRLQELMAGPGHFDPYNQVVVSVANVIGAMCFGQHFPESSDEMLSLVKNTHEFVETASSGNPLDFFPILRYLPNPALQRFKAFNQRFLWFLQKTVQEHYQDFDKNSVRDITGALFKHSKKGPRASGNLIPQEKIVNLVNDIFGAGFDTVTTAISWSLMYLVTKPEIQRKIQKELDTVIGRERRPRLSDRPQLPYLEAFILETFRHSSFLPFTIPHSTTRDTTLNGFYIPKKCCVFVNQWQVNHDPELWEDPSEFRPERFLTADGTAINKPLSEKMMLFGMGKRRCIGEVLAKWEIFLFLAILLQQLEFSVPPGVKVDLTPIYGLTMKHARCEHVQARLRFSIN
Excerpt: as §1

Test [5] deals with CYP2C9 (Homo sapiens, UniProt P11712). Put plainly: CYP enzyme panel. Type of test: biochemical.
Chain of CYP2C9 (P11712 whole entry): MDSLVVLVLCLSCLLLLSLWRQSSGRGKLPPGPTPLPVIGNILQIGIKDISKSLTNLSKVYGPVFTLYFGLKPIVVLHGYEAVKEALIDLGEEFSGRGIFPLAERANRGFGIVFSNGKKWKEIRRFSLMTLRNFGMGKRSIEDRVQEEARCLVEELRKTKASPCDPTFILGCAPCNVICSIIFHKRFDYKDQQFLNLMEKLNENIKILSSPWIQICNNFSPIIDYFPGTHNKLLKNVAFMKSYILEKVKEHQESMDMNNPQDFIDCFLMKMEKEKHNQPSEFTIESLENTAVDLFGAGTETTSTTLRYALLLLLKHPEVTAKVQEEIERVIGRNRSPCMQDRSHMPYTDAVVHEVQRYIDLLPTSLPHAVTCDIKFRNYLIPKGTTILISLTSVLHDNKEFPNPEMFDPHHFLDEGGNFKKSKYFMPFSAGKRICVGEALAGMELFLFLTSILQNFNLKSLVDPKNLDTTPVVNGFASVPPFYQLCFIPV
Excerpt: as §1

The target of test [6] is CYP2D6 (Homo sapiens, UniProt P10635). Put plainly: CYP enzyme panel. Type of test: biochemical.
Chain of CYP2D6 (P10635 whole entry): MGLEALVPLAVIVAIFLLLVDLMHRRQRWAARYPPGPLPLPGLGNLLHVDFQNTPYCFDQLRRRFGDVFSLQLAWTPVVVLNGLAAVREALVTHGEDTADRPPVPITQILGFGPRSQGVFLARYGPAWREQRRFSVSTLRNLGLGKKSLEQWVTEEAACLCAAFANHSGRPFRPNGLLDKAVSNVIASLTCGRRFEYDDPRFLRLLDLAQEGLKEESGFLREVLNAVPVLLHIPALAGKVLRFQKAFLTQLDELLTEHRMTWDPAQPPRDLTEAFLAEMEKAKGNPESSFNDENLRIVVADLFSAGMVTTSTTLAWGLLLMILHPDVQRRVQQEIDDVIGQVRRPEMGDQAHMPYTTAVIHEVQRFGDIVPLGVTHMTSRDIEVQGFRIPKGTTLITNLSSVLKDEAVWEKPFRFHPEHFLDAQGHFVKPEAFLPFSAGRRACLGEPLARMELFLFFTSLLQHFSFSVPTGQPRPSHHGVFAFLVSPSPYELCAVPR
Excerpt: as §1

Test [7] concerns the target CYP2C19 (Homo sapiens, UniProt P33261). Nature of the test: CYP enzyme panel. In kind it is biochemical.
Excerpt: as §1

Test [8] concerns the target CYP2C8 (Homo sapiens, UniProt P10632). Put plainly: CYP enzyme panel. In kind it is biochemical.
Excerpt: as §1

For test [9], the target named is SW48 (hTDO) (Homo sapiens, UniProt P48775). Nature of the test: cell-based.
Chain of SW48 (hTDO) (P48775 whole entry): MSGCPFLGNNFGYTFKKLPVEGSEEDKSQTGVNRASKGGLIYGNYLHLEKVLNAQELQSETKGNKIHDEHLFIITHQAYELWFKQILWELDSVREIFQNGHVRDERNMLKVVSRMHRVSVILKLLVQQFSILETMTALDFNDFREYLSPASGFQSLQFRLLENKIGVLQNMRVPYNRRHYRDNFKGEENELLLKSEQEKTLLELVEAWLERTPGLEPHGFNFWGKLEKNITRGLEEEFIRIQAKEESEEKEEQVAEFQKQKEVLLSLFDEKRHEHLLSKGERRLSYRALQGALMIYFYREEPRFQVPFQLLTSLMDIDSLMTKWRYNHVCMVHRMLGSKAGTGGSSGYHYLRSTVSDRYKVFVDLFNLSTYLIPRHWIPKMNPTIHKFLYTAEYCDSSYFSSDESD
Test [10] deals with rotenone‐induced mouse model of PD. Nature of the test: Intestinal transit of Evans blue in rotenone model. In kind it is in vivo, male C57BL/6NCrl mice. The conditions noted are these: P < 0.0001. How it is done: The dye was injected intragastrically, thirty minutes before the sacrifice of the mice. Intestinal transit was measured as the distance travelled by the dye from the pylorus to the most distal part of the colon.

For test [11], the target named is T1, recombinant human TDO (hTDO). Nature of the test: biochemical.
In test [12] the target is mouse TDO (mTDO) (Mus musculus, UniProt P48776). Put plainly: TDO biochemical assay (NFK Green), mTDO.
Chain of mouse TDO (mTDO) (P48776 whole entry): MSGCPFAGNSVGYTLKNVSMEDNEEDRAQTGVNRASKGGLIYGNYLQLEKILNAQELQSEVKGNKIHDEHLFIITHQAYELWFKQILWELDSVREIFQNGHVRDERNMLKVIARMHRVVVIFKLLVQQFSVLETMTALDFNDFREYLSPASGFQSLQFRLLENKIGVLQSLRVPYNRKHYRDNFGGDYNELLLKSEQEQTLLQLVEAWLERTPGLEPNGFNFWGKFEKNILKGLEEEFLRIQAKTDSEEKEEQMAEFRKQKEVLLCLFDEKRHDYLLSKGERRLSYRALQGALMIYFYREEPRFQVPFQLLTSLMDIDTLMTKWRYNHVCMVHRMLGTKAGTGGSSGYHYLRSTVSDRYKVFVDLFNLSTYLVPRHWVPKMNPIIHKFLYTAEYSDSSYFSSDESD
Test [13] concerns rotenone‐induced mouse model of PD. Nature of the test: Microglia (Iba1) volume and occupied space in substantia nigra, iDISCO. The conditions noted are these: P < 0.05.
In test [14] the target is human IDO1‐overexpressing HEK‐293 cells (HEK‐hIDO1) (Homo sapiens, UniProt P14902). Nature of the test: Cell-based IDO1 assay, HEK‐hIDO1 cells (NFK Green). How it is done: Inhibition of Trp‐to‐NFK conversion in HEK‐hTDO, HEK‐hIDO1, and SW48 cells was measured with NFK Green, essentially as described previously for cancer cell lines. Cell density, incubation time, and Trp concentrations were optimized. For the TDO assay with HEK‐hTDO and SW48 cells, 200 µM Trp was added to the culture medium. No additional Trp was added for the IDO1 assay with HEK‐hIDO1 cells. The incubation time with compound was 42 h for the assays with HEK‐hTDO and HEK‐hIDO1 cells, and 18 h for the assay with SW48 cells.
Chain of human IDO1‐overexpressing HEK‐293 cells (HEK‐hIDO1) (P14902 whole entry): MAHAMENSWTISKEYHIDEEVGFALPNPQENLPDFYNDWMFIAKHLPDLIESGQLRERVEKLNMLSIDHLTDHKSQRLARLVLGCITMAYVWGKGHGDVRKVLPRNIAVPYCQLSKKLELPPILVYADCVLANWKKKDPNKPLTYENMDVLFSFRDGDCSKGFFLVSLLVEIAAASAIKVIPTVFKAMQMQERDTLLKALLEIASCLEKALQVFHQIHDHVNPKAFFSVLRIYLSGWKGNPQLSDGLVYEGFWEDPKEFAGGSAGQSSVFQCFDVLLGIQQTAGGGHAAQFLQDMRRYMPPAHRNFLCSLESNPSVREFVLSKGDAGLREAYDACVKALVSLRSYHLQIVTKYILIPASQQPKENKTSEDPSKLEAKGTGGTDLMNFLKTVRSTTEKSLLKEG

Test [15] deals with hTDO‐overexpressing HEK‐293 cells. Details: method as in PMID 22308364. The conditions noted are these: originally reported; cited from earlier work.
The test system of test [16] is constitutively TDO‐expressing human glioblastoma A172 cell line. On the set-up: method as in PMID 31806638. Particulars: cited from earlier work.

T1 sequence (P48775 whole entry): as the sequence (P48775 whole entry) above
Chain of CYP2C8 (P10632 whole entry): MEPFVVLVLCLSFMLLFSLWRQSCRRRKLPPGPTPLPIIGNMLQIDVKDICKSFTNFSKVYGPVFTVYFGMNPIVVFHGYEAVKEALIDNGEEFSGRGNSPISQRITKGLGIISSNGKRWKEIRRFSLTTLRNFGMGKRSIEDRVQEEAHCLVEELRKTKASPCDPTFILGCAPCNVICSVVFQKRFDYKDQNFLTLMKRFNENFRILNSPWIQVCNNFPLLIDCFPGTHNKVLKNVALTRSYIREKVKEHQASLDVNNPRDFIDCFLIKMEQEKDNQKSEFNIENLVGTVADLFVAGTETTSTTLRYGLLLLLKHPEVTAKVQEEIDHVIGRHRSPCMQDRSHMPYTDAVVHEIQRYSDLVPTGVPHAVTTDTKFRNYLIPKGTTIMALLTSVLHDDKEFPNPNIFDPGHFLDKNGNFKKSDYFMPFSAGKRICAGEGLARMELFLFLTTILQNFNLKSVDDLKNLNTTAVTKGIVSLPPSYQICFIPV
Chain of CYP3A4 (P08684 whole entry): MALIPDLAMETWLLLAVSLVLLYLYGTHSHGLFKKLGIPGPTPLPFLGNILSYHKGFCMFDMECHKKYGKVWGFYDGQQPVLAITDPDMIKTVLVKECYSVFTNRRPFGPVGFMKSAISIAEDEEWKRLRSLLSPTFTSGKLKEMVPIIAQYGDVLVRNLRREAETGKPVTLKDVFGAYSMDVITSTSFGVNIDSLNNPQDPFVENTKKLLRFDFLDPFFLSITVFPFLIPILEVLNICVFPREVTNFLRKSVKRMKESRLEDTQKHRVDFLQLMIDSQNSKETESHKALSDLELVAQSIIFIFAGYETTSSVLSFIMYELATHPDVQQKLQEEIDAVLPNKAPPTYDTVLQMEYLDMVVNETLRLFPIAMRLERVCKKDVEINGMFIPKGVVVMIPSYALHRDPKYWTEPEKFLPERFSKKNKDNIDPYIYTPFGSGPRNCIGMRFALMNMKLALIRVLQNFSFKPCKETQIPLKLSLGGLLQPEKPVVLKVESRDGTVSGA
Chain of CYP2C19 (P33261 whole entry): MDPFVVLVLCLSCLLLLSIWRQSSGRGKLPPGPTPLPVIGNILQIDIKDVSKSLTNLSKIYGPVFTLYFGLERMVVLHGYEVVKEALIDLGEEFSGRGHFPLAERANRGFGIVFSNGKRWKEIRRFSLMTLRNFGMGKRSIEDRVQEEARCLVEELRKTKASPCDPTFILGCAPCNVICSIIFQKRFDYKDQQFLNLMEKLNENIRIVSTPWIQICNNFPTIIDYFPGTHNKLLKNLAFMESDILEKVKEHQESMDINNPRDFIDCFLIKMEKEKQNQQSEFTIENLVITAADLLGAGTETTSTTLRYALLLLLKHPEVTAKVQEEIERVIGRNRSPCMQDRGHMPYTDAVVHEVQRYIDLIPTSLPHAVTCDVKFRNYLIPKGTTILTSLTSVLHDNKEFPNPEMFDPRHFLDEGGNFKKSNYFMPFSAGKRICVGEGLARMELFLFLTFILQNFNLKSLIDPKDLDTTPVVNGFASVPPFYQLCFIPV
Chain of CYP2B6 (P20813 whole entry): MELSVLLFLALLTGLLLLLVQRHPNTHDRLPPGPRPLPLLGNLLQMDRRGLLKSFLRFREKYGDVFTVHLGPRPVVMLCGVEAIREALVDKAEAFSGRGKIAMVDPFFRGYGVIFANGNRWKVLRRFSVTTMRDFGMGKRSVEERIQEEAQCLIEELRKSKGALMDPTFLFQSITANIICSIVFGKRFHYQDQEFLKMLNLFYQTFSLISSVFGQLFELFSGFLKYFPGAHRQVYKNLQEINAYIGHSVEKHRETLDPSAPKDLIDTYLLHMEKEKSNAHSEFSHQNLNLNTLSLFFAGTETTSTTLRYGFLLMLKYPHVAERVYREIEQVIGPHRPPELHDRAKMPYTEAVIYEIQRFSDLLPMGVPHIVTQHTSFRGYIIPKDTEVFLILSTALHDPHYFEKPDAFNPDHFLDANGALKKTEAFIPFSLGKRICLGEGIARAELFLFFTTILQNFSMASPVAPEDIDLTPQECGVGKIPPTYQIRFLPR

As usually defined, the IC50 is the midpoint of a concentration-inhibition curve. `C[C@@H](CO)NC(=O)c1ccc(-c2c[nH]c3cc(F)ccc23)cc1` [NTRC 3531‐0]: in [1], the “selectivity for hTDO over hIDO1, biochemical assays” value is “more than 60 times”. For the same molecule, the IC50 in test [2], in [3], in test [4], in [5], in test [6] and in test [7] was > 31.6 µM each time. Also, the IC50 in test [8] is 16.3 µM; in test [9], 0.22 µM; in test [11], 0.49 µM; in [12], 0.846 µM; in test [14] (cell-based assay, read-out: Potency (IC50) HEK‐hIDO1 (converted)), 20.7 µM. In addition, the “intestinal transit of the PD mice” value in test [10] (highest dose (100 mg·kg^−1)) is “improved the intestinal transit”. Besides, the “mean microglia volume in the SN of rotenone‐treated mice” value in test [13] (highest dose (100 mg·kg^−1)) is listed as “reduced the mean microglia volume”.
For orientation: inhibition means the share of the control response that was lost under treatment. Consider `Fc1ccc2c(/C=C/c3nnn[nH]3)c[nH]c2c1` [LM10, reference compound], for which the “potency in hTDO‐overexpressing HEK‐293 cells” value in test [15] is “high‐nanomolar potent inhibitor”. In [9] (SW48, read-out: inhibition in SW48 cells), the inhibition at 31.6 µM is 50%. In addition, in test [10] (two highest doses (25 and 50 mg·kg^−1)), the “intestinal transit of the PD mice” value is “improved the intestinal transit”. The IC50 in test [16] was 24 µM; in test [12], 1.07 µM. Further, the “mean microglia volume in the SN of rotenone‐treated mice” value in test [13] (highest dose (50 mg·kg^−1)) is “reduced the mean microglia volume”. In test [14] (HEK293, read-out: inhibition HEK‐hIDO1), the inhibition at 0.6 µM is < 20%.
